Common to all, as to experiment: NCI tumour cell line growth inhibition, 48 h
Experiment [1] deals with NCI-H522 lung.
Experiment [2] relates to RPMI-8226 leukemia.
The test system of experiment [3] is SW-620 colon.
For experiment [4], the system named is SF-539 CNS.
The test system of experiment [5] is SF-268 CNS.
Experiment [6] concerns SNB-75 CNS.
Experiment [7] deals with OVCAR-8 ovarian.
Experiment [8] relates to CAKI-1 renal.
The test system of experiment [9] is SR leukemia.

Molecules are shown by their SMILES.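 Protocol summary: plate cells (96-well), add compound at 5 concentrations, incubate 48 h, interpolate endpoints linearly. GI50 = concentration required for 50% inhibition of growth. Definition used: TGI = concentration required for complete inhibition of growth.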

Consider `COC(=O)c1c(C)cc2c(c1O)C1(O)C(=O)c3cc4c(c(O)c3C(=O)C1(OC)C(O)C2)C(=O)C=C(NC1OC(C)C(OC)C(O)C1OC)C4=O` (stereo unspecified), for which the TGI is 0.257 µM in experiment [1]; 0.303 µM in experiment [2]; 0.164 µM in experiment [3]; 0.2 µM in experiment [4]; 0.648 µM in experiment [5]; 0.277 µM in [6]. Also, the results for the TGI in experiment [7] and in experiment [8] were 0.14 µM and 0.806 µM, respectively.

Turning to `N#CCCN(CCC#N)c1ccc(/C=N\c2nc(-c3ccccc3)cs2)cc1`, the TGI in experiment [1], in experiment [2], in experiment [3], in experiment [4], in [5] and in experiment [6] was over 100 µM throughout. Also, the TGI in experiment [7] and in experiment [8] was over 100 µM in each case.

With `O=C1C2C(C(=O)N1c1ccccc1)C1(c3ccccc3)OC2(c2ccccc2)c2ccccc21` (stereo unspecified), the TGI in [1], in [2], in experiment [3], in experiment [4], in experiment [5] and in experiment [6] was over 100 µM in each case. Also, the TGI in experiment [7] and in [8] was over 100 µM in each case.

With `Cc1cc(Cl)ccc1NC(=O)CC1SC(N)=NC1=O` (stereo unspecified), the TGI in experiment [1], in experiment [2], in experiment [3], in experiment [4], in experiment [5] and in experiment [6] was over 100 µM each time. The TGI in [7] and in experiment [8] was over 100 µM throughout.

Consider `CN1C(=O)c2cc([N+](=O)[O-])ccc2[C@H]2C(=O)c3cc4c(cc3[C@H]21)OCO4`, for which the GI50 in experiment [1] is under 0.0179 µM; in experiment [2], 0.0435 µM; in [3], 0.0481 µM; in experiment [4], 0.041 µM; in experiment [5], 0.0243 µM; in experiment [6], 0.12 µM. For the same compound, the GI50 was 0.0702 µM in [7] and under 0.01 µM in [8]. Besides, the TGI in experiment [1] is 9.42 µM; in [3], over 100 µM; in experiment [4], 0.973 µM; in experiment [5] it was 1.68 µM; in [6], over 100 µM; in experiment [8], 0.228 µM.

Take `O=C(Nc1ccc([N+](=O)[O-])cc1C(=O)O)c1ccc([N+](=O)[O-])cc1`: the TGI in [2] is 57.7 µM; in [3] it was over 100 µM; in [4], over 100 µM; in experiment [5] it was over 100 µM; in experiment [6], over 100 µM; in [7], over 100 µM.

`Cc1cc(NS(=O)(=O)c2ccc(NC(=O)c3cccc4cc5ccccc5nc34)cc2)no1`: the TGI in experiment [1] is 33.8 µM; in experiment [2], 55.9 µM; in [3], 70.2 µM; in experiment [4], 33.3 µM; in [5] it was over 100 µM; in experiment [6], 41.9 µM. Also, the TGI in [7] was 45.8 µM; in [8] it was 46.7 µM.

Consider `CCC[CH2][Sn]1([CH2]CCC)[O]C(=O)c2cccc(OC)c2[O]1`, for which the GI50 in experiment [1] was 0.0386 µM; in experiment [3], 0.148 µM; in experiment [4], 0.387 µM; in experiment [5], 0.194 µM; in experiment [6], 0.112 µM; in [7] it was 0.469 µM. For the same compound, in [8], the GI50 is 0.0732 µM. For the same compound, the TGI in [1] amounted to 0.179 µM; in experiment [3] it was 0.366 µM; in [4], 1.42 µM; in experiment [5], 0.841 µM; in [6], 1.26 µM; in experiment [7], 1.71 µM. In [8], this compound gave a TGI of 0.775 µM.

Turning to `Cc1ccc(-c2nc3c(C(=O)NCCN(C)C)cccc3[nH]2)cc1`, the TGI in experiment [3] is 28.6 µM; in experiment [4], 23 µM; in experiment [5], 48.9 µM; in [6], 52.4 µM; in experiment [7], 78.3 µM; in [8], over 100 µM.

For the compound `S=P1(c2ccccc2)Nc2ccc(Cl)cc2N1` (stereo unspecified), the TGI in experiment [1], in [2], in experiment [3], in [4], in experiment [5] and in experiment [8] was over 100 µM throughout.

With `CN(C)c1ccc(/C=C/c2ccnc3ccccc23)cc1N`, the TGI in [2] was 15.5 µM; in [3] it was 33.3 µM; in experiment [4] it was 28.8 µM; in experiment [5], 23.2 µM; in [9], 5.87 µM; in experiment [6] it was 19.5 µM. This compound also had a TGI in experiment [7] of 22.1 µM.

As to `CC(=O)OC1(C#N)CC2OC1C1C2N1C(=O)OC(C)(C)C` (stereo unspecified), the TGI in experiment [1], in experiment [2], in experiment [3], in [4], in experiment [5] and in experiment [6] was over 100 µM each time. Further, the TGI in [7] and in [8] was over 100 µM throughout.

The values are drawn from PubChem BioAssay (NCI).
